# Experiments:
# NSCLC cells [1] = experiment: Colony formation assay; format: cell-based, human; settings: 10 μM, 10 days; A549, H358, H157, Calu-1, H1972 vs H292, HCC827, H1975, H322
# NSCLC cells [2] = experiment: MTS Cell Proliferation Colorimetric Assay; format: cell-based, human; settings: 48 h
# Text: A library containing small molecules from the National Cancer Institute (NCI) was employed to dock the GTP/GDP binding pocket of KRAS (PDB ID code: 4EPT) using the University of California, San Francisco (UCSF) DOCK 6.1 program suite. The small molecules were ranked according to their energy scores. Top 500 small molecules with predicted binding energies were selected for screening of cytotoxicity in human lung cancer cells by sulforhodamine B (SRB) assay. […] This lead compound was named KRAS agonist-533 (KRA-533) (FIG. 1A). To test whether KRA-533 regulates KRAS activity in lung cancer cells, human lung cancer cell lines with or without KRAS mutation were treated with KRA-533 (10 μM) for 48 h. […] Cell proliferation was also measured following treatment of cells for 48 h using MTS Cell Proliferation Colorimetric Assay Kit.
# KRAS G12C [3] = target: T1, KRAS G12C (Homo sapiens, UniProt P01116, G12C); experiment: Thermal shift assay, purified KRAS G12C; format: binding; settings: increasing concentrations
# Method: (§1) Melting temperature (Tm) values of DMSO Ctrl and 15 μM of KRA-533 are shown.
# (§2) To test whether KRA-533 directly binds to KRAS, a thermal shift assay was employed. […] To further assess whether KRA-533 activates KRAS directly, an in vitro cell-free GDP-GTP exchange experiment was carried out. Purified WT, G12C, G12D or G13D mutant KRAS proteins were incubated with purified GEF (RASGRP1) and GAP (RASA1) proteins in reaction buffer containing [γ-35S]-GTP in the absence or presence of increasing concentrations of KRA-533 at 25° C. for 60 min. KRAS activity was quantified by liquid scintillation counting. […] These findings indicate that KRA-533 not only activates WT KRAS but also has the capacity to further enhance KRAS activity of mutant KRAS.
# KRAS G12D [4] = target: T2, KRAS G12D (Homo sapiens, UniProt P01116, G12D); experiment: Thermal shift assay, purified KRAS G12D; format: binding; settings: increasing concentrations
# Method: as §1, §2
# KRAS S17A [5] = target: T3, KRAS S17A (Homo sapiens, UniProt P01116, S17A); experiment: Thermal shift assay, purified KRAS S17A; format: binding
# T3 construct: made in house
# Method: (§3) Melting temperature (Tm) values of DMSO control and 15 μM KRA-533 are shown.
# (§4) To further test this intracellularly, GFP-tagged WT, S17A, K117A and AA KRAS mutants were exogenously transfected into A549 cells. […] Activities of exogenous GFP-tagged WT and KRAS mutants were analyzed by Western blot using GFP antibody.
# KRAS S17A/K117A (AA) = target: T4, KRAS S17A/K117A (AA) (Homo sapiens, UniProt P01116, K117A/S17A); experiment: Thermal shift assay, purified KRAS S17A/K117A (AA); format: binding
# T4 construct: made in house
# Method: as §3, §4
# KRAS G12C [6] = target: T1, KRAS G12C; experiment: In vitro cell-free GDP-GTP exchange, KRAS G12C; format: biochemical; settings: with GEF (RASGRP1) and GAP (RASA1), 25° C., 60 min
# Method: (§5) GTPγS, purified GFP (RASGRP1, 180 nM) and GAP (RASA1, 180 nM) at 25° C. in the presence or absence of increasing concentrations of KRA-533.
# as §2
# KRAS G12D [7] = target: T2, KRAS G12D; experiment: In vitro cell-free GDP-GTP exchange, KRAS G12D; format: biochemical; settings: with GEF (RASGRP1) and GAP (RASA1), 25° C., 60 min
# Method: as §5, §2
# KRAS G13D = KRAS G13D (Homo sapiens, UniProt P01116, G13D); experiment: In vitro cell-free GDP-GTP exchange, KRAS G13D; format: biochemical; settings: with GEF (RASGRP1) and GAP (RASA1), 25° C., 60 min
# Method: as §5, §2
# KRAS S17A [8] = target: T3, KRAS S17A; experiment: In vitro cell-free GDP-GTP exchange, KRAS S17A; format: biochemical; settings: 15 μM
# Method: GTPγS, purified GFP (RASGRP1, 180 nM) and GAP (RASA1, 180 nM) at 25° C. in the presence or absence of 15 μM KRA-533. The radioactivity remaining on the protein after intensive washing was quantified by liquid scintillation.
# as §4
# GFP-tagged KRAS WT = target: T5, GFP-tagged KRAS WT (Homo sapiens, UniProt P01116); experiment: Raf-1-RBD pull-down of exogenous GFP-tagged KRAS WT in A549 cells; format: cell-based; settings: 15 μM, 48 h
# T5 construct: expressed in transfected cells; host or cells: A549
# Method: The GFP-tagged exogenous KRAS-GTP (GFP-KRAS-GTP) was analyzed by Western blot using anti-GFP antibody.
# as §4
# A549 and H157 cells = experiment: Western blot of autophagy marker p62 with or without chloroquine; format: cell-based, human; settings: 48 h
# Method: To assess whether the autophagy inhibitor regulates KRA-533-induced autophagy formation, A549 and H157 cells were treated with KRA-533 in the absence or presence of autophagy inhibitor chloroquine for 48 h, followed by Western blot analysis of the autophagy marker p62.
# [9] = test system: lung tumors of LSL-KRASG12D LKB1fl/fl (KL) mice; experiment: Genetically engineered LSL-KRASG12D LKB1fl/fl (KL) mouse model; format: in vivo
# Method: After administration of adenovirus Cre recombinase in KL mice for 6 weeks, mice were treated with KRA-533 (20 mg/kg/d) for 8 weeks (n=6 each group). Survival of mice was calculated up to 8 weeks before euthanization in the control group versus the KRA-533 treatment group.
# It is reported that the co-occurrence of KRAS and LKB1(STK11) mutations could label a more aggressive molecular subtype of NSCLC. Around half of KRAS-mutant lung cancer patients also carry LKB1 mutations, therefore, it will be important to test whether KRA-533 is also effective for the treatment of KRAS-mutant lung cancers with mutation or loss. LSL-KRASG12D LKB1fl/fl (KL) mice were generated by intercrossing B6.129S4-Krastm3Tyj/J (KRASG12D) and FVB; 129S6-Stk11tm1Rdp/Nci (LKB1) strains two generations and genotyped to confirm homozygosity for the LKB1 allele. These mice contain a KRASG12D LSL knock-in allele and a floxed allele of LKB1 (LKB1fl/fl). KRA-533 (20 mg/kg/d) or vehicle control was administered i.p. starting at 6 weeks post AdeCre delivery. After treatment for 8 weeks, mice were euthanized, and lung tumors were analyzed as described above.
structure (smiles),measurement,setting,value
"O=C(CBr)NCCCCc1ccc(C(=O)O)cc1 [KRA-533, 4-(4-(2-bromoacetamido)butyl)benzoic acid]","cell growth suppression (colony formation), KRAS mutant versus non-mutant cell lines",NSCLC cells [1],relatively more sensitive to KRA-533-mediated cell growth suppression than those without KRAS mutation
same,cell proliferation,NSCLC cells [2]; various NSCLC cells,suppression of cell proliferation
same,"sensitivity of cell proliferation, KRAS mutant cells versus H292","NSCLC cells [2]; A549, H157, Calu-1 vs H292",more sensitive to KRA-533 than H292 cells without KRAS mutation
same,"melting temperature (Tm) / binding, KRAS G12C",KRAS G12C [3],Dose dependent increases in melting temperature (Tm)
same,"melting temperature (Tm) / binding, KRAS G12D",KRAS G12D [4],Dose dependent increases in melting temperature (Tm)
same,"binding (thermal shift), KRAS S17A",KRAS S17A [5],could bind
same,"binding (thermal shift), AA (S17A/K117A) KRAS",KRAS S17A/K117A (AA),failed to bind
same,"KRAS activity (liquid scintillation), KRAS G12C",KRAS G12C [6],further enhanced the activities of active KRAS mutants
same,"KRAS activity (liquid scintillation), KRAS G12D",KRAS G12D [7],further enhanced the activities of active KRAS mutants
same,"KRAS activity (liquid scintillation), KRAS G13D",KRAS G13D,further enhanced the activities of active KRAS mutants
same,"KRAS activity (liquid scintillation), KRAS S17A",KRAS S17A [8],directly activated
same,activity of exogenous GFP-tagged WT KRAS (GFP-KRAS-GTP),GFP-tagged KRAS WT,activated exogenous WT and S17A
same,"autophagy marker p62, KRA-533 alone",A549 and H157 cells,induced autophagy with deceased p62 level via degradation
same,tumor growth,"[9]; 20 mg/kg/d i.p. from 6 weeks post AdeCre, 8 weeks",significantly suppressed tumor growth
same,survival,"[9]; 20 mg/kg/d i.p., up to 8 weeks",prolonged survival
